Measured values reported in patent US10285983B2, “3-(1H-pyrrolo[2,3-B]pyridin-2-yl)-1H-pyrazolo[3,4-B] pyridines and therapeutic uses thereof” (Samumed, LLC, priority 2015, dated 2019).

Tests used:
Format in all cases: cell-based
[1] = tested on: Wnt activity (Sp5-Luc reporter, SW480 colon carcinoma cells); test: Wnt activity screening assay, Sp5-Luc reporter gene in SW480 cells; settings: Homo sapiens; for inhibition at 10 µM: given for EC50 >10 μM, read-out: percent inhibition at 10 μM; for EC50: overnight incubation
Text: The screening assay for Wnt activity is described as follows. Reporter cell lines can be generated by stably transducing cancer cell lines (e.g., colon cancer) or primary cells (e.g., IEC-6 intestinal cells) with a lentiviral construct that includes a Wnt-responsive promoter driving expression of the firefly luciferase gene.
SW480 colon carcinoma cells were transduced with a lentiviral vector expressing luciferase with a human Sp5 promoter consisting of a sequence of eight TCF/LEF binding sites. SW480 cells stably expressing the Sp5-Luc reporter gene and a hygromycin resistance gene were selected by treatment with 150 μg/mL of hygromycin for 7 days. These stably transduced SW480 cells were expanded in cell culture and used for all further screening activities. Each compound was dissolved in DMSO as a 10 mM stock and used to prepare compound source plates. Serial dilution (1:3, 10-point dose-response curves starting from 10 μM) and compound transfer was performed using the ECHO 550 (Labcyte, Sunnyvale, Calif.) into 384-well white solid bottom assay plates (Greiner Bio-One) with appropriate DMSO backfill for a final DMSO concentration of 0.1%. For Sp5-Luc reporter gene assays, the cells were plated at 4,000 cells/well in 384-well plates with medium containing 1% fetal bovine serum and incubated overnight at 37° C. and 5% CO2. Following incubation, 20 μl of BrightGlo luminescence reagent (Promega) was added to each well of the 384-well assay plates. The plates were placed on an orbital shaker for 2 min and then luminescence was quantified using the Envision (Perkin Elmer) plate reader. Readings were normalized to DMSO only treated cells, and normalized activities were utilized for EC50 calculations using the dose-response log (inhibitor) vs. response—variable slope (four parameters) nonlinear regression feature available in GraphPad Prism 5.0 (or Dotmatics). For EC50 of >10 μM, the percent inhibition at 10 μM is provided.

[2] = tested on: SW480 colon cancer cells; test: Cell viability assay (CellTiter-Blue); settings: Homo sapiens, 96 h, four days; for inhibition at 10 µM: given for EC50 >10 μM, read-out: percent inhibition at 10 μM
Experimental: Representative compounds were screened using the following assay procedure to assess the effect on cell viability as described below.
Each compound was dissolved in DMSO as a 10 mM stock and used to prepare compound source plates. Serial dilution (1:3, 8-point dose-response curves from 10 μM to 0.0045 μM) and compound transfer was performed using the ECHO 550 (Labcyte, Sunnyvale, Calif.) into 96-well clear bottom, black-walled plates (Corning-Costar).
Approximately 2×10^3 SW480 colon cancer cells were seeded into each well and allowed to incubate in the presence or absence of compound for four days at 37° C./5% CO2. Eight replicates of DMSO-treated cells served as controls and cells treated with compound were performed in duplicate.
After incubation, 20 μL of CellTiter-Blue (Promega) was added to each well allowed to incubate for approximately 3 hours. This reagent was a buffered solution which contains resazurin, metabolically active cells were able to reduce rezarurin (blue) into resorufin (pink) which was highly fluorescent. This measured fluorescence was used as a readout for cell viability.
After incubation, the plates were read at Ex 560 nm Em 590 nm (Cytation 3, BioTek). Dose-response curves were generated and EC50 concentration values were calculated using non-linear regression curve fit in the GraphPad Prism (San Diego, Calif.) or Dotmatics' Studies Software (Bishops Stortford, UK). For EC50 of >10 μM, the percent inhibition at 10 μM is provided.

[3] = tested on: primary human fibroblasts derived from IPF patients (LL29 cells); test: Inhibition of fibrotic process, αSMA staining in TGF-β1 treated LL29 fibroblasts; settings: Fibroblast, 96 h, TGF-β1 20 ng/mL, 4 days; for EC50: % αSMA positive cells; for inhibition at 10 µM: given for EC50 >10 μM, read-out: percent inhibition at 10 μM
Text: Representative compounds were screened using primary human fibroblasts (derived from IPF patients) treated with TGF-β1 to determine their ability to inhibit the fibrotic process.
Primary human fibroblasts derived from IPF patients (LL29 cells) [^1Xiaoqiu Liu, et. al., “Fibrotic Lung Fibroblasts Show Blunted Inhibition by cAMP Due to Deficient cAMP Response Element-Binding Protein Phosphorylation”, Journal of Pharmacology and Experimental Therapeutics (2005), 315(2), 678-687; ^2Watts, K. L., et. al., “RhoA signaling modulates cyclin D1 expression in human lung fibroblasts; implications for idiopathic pulmonary fibrosis”, Respiratory Research (2006), 7(1), 88] were obtained from American Type Culture Collection (ATCC) and expanded in F12 medium supplemented with 15% Fetal Bovine Serum and Penicillin/Streptomycin.
Each compound was dissolved in DMSO as a 10 mM stock and used to prepare compound source plates. Serial dilution (1:2, 11-point dose-response curves from […] to […]) and compound transfer was performed using the ECHO 550 (Labcyte, Sunnyvale, Calif.) into 384-well clear bottom assay plates (Greiner Bio-One) with appropriate DMSO backfill for a final DMSO concentration of 0.1%. LL29 cells are plated at 1,500 cells/well in 80 μL/well F12 medium supplemented with 1% Fetal Bovine Serum. One hour after addition of the cells, TGF-β1 (Peprotech; 20 ng/mL) was added to the plates to induce fibrosis (ref. 1 and 2 above). Wells treated with TGF-β1 and containing DMSO were used as controls. Cells were incubated at 37° C. and 5% CO2 for 4 days. Following incubation for 4 days, SYTOX green nucleic acid stain (Life Technologies [Thermo Fisher Scientific]) was added to the wells at a final concentration of 1 μM and incubated at room temperature for 30 min. Cells were then fixed using 4% formaldehyde (Electron Microscopy Sciences), washed 3 times with PBS followed by blocking and permeabilization using 3% Bovine Serum Albumin (BSA; Sigma) and 0.3% Triton X-100 (Sigma) in PBS. Cells were then stained with antibody specific to α-smooth muscle actin (αSMA; Abcam) (ref. 1 and 2 above) in 3% Bovine Serum Albumin (BSA; Sigma) and 0.3% Triton X-100 (Sigma) in PBS, and incubated overnight at 4° C. Cells were then washed 3 times with PBS, followed by incubation with Alexa Flor-647 conjugated secondary antibody (Life Technologies [Thermo Fisher Scientific]) and DAPI at room temperature for 1 hour. Cells were then washed 3 times with PBS and plates were sealed for imaging. αSMA staining was imaged by excitation at 630 nm and emission at 665 nm and quantified using the Compartmental Analysis program on the CellInsight CX5 (Thermo Scientific). Dead or apoptotic cells were excluded from analysis based on positive SYTOX green staining. % of total cells positive for αSMA were counted in each well and normalized to the average of 11 wells treated with TGF-β1 on the same plate using Dotmatics' Studies Software. The normalized averages (fold change over untreated) of 3 replicate wells for each compound concentration were used to create dose-responses curves and EC50 values were calculated using non-linear regression curve fit in the Dotmatics' Studies Software. For EC50 of >10 μM, the percent inhibition at 10 μM is provided.

| EC50 [1] [µM] | EC50 [2] [µM] | SMILES | inhibition at 10 µM [1] [%] | inhibition at 10 µM [2] [%] | EC50 [3] [µM] | inhibition at 10 µM [3] [%] |
| --- | --- | --- | --- | --- | --- | --- |
| > 10 | > 10 | c1csc(-c2ccnc3[nH]c(-c4n[nH]c5ncc(-c6cncc(OC7CCCCC7)c6)cc45)cc23)c1 [Compound 703, 5-(5-(Cyclohexyloxy)pyridin-3-yl)-3-(4-(thiophen-2-yl)-1H-pyrrolo[2,3-b]pyridin-2-yl)-1H-pyrazolo[3,4-b]pyridine] | 38.6 | 23.3 | 2.51 | – |
| > 10 | > 10 | O=C(CC1CCNCC1)Nc1cncc(-c2cnc3[nH]nc(-c4cc5c(-c6ccncc6)ccnc5[nH]4)c3c2)c1 [Compound 577] | 12.5 | 8.7 | 1.41 | – |
| > 10 | > 10 | c1cncc(-c2ccnc3[nH]c(-c4n[nH]c5ncc(-c6cncc(CN7CCCCC7)c6)cc45)cc23)c1 [Compound 99, 5-(5-(Piperidin-1-ylmethyl)pyridin-3-yl)-3-(4-(pyridin-3-yl)-1H-pyrrolo[2,3-b]pyridin-2-yl)-1H-pyrazolo[3,4-b]pyridine] | 26 | 9.6 | > 10 | 73.8 |
| > 10 | > 10 | CC(C)Nc1cncc(-c2cnc3[nH]nc(-c4cc5c(-c6cccnc6)ccnc5[nH]4)c3c2)c1 [Compound 96, N-Isopropyl-5-(3-(4-(pyridin-3-yl)-1H-pyrrolo[2,3-b]pyridin-2-yl)-1H-pyrazolo[3,4-b]pyridin-5-yl)pyridin-3-amine] | 30.1 | 14.3 | 1.56 | – |
| > 10 | > 10 | O=C(Nc1cncc(-c2cnc3[nH]nc(-c4cc5c(-c6ccccc6F)ccnc5[nH]4)c3c2)c1)C1CCCC1 [Compound 78, N-(5-(3-(4-(2-Fluorophenyl)-1H-pyrrolo[2,3-b]pyridin-2-yl)-1H-pyrazolo [3,4-b]pyridin-5-yl)pyridin-3-yl)cyclopentanecarboxamide] | 17 | 11.3 | 7.09 | – |
| > 10 | > 10 | c1ncc(-c2cnc3[nH]nc(-c4cc5c(N6CCCCC6)ccnc5[nH]4)c3c2)cn1 [Compound 195, 3-(4-(Piperidin-1-yl)-1H-pyrrolo[2,3-b]pyridin-2-yl)-5-(pyrimidin-5-yl)-1H-pyrazolo[3,4-b]pyridine] | 6.9 | 13.9 | 4.38 | – |
| > 10 | > 10 | c1cc(-c2cnc3[nH]nc(-c4cc5c(-c6ccncc6)ccnc5[nH]4)c3c2)ccn1 [Compound 130, 5-(Pyridin-4-yl)-3-(4-(pyridin-4-yl)-1H-pyrrolo[2,3-b]pyridin-2-yl)-1H-pyrazolo[3,4-b]pyridine] | 6.3 | 5.7 | > 10 | 20.5 |
| > 10 | > 10 | CN(C)c1cncc(-c2cnc3[nH]nc(-c4cc5c(-c6ccccc6F)ccnc5[nH]4)c3c2)c1 [Compound 63, 5-(3-(4-(2-Fluorophenyl)-1H-pyrrolo[2,3-b]pyridin-2-yl)-1H-pyrazolo[3,4-b]pyridin-5-yl)-N,N-dimethylpyridin-3-amine] | 4 | 16.1 | > 10 | 0 |
| > 10 | > 10 | CC(C)Nc1cncc(-c2cnc3[nH]nc(-c4cc5c(-c6ccccc6F)ccnc5[nH]4)c3c2)c1 [Compound 68, 5-(3-(4-(2-Fluorophenyl)-1H-pyrrolo[2,3-b]pyridin-2-yl)-1H-pyrazolo[3,4-b]pyridin-5-yl)-N-isopropylpyridin-3-amine] | 4.6 | 1 | 8.54 | – |
| > 10 | > 10 | CN1CCN(c2ccnc3[nH]c(-c4n[nH]c5ncc(-c6cncc(NC(=O)C7CCCCC7)c6)cc45)cc23)CC1 [Compound 247, N-(5-(3-(4-(4-Methylpiperazin-1-yl)-1H-pyrrolo[2,3-b]pyridin-2-yl)-1H-pyrazolo[3,4-b]pyridin-5-yl)pyridin-3-yl)cyclohexanecarboxamide] | 6.4 | 11.7 | 5.03 | – |
| > 10 | > 10 | CC(C)CC(=O)Nc1cncc(-c2cnc3[nH]nc(-c4cc5c(-c6ccc(F)cc6)ccnc5[nH]4)c3c2)c1 [Compound 30, N-(5-(3-(4-(4-Fluorophenyl)-1H-pyrrolo[2,3-b]pyridin-2-yl)-1H-pyrazolo [3,4-b]pyridin-5-yl)pyridin-3-yl)-3-methylbutanamide] | 11.9 | 18.5 | > 10 | 12.8 |
| > 10 | > 10 | CN1CCN(c2ccnc3[nH]c(-c4n[nH]c5ncc(-c6cn[nH]c6)cc45)cc23)CC1 [Compound 635, 3-(4-(4-Methylpiperazin-1-yl)-1H-pyrrolo[2,3-b]pyridin-2-yl)-5-(1H-pyrazol-4-yl)-1H-pyrazolo[3,4-b]pyridine] | 5.8 | 3.6 | > 10 | 26 |
| > 10 | > 10 | CCCCC(=O)Nc1cncc(-c2cnc3[nH]nc(-c4cc5c(-c6ccccc6F)ccnc5[nH]4)c3c2)c1 [Compound 75, N-(5-(3-(4-(2-Fluorophenyl)-1H-pyrrolo[2,3-b]pyridin-2-yl)-1H-pyrazolo [3,4-b]pyridin-5-yl)pyridin-3-yl)pentanamide] | 2.1 | 23.6 | > 10 | 0 |
